Literature values, collected in patent US11530415B2, “Genetically engineered Streptomyces capable of thaxtomin production in the absence of thaxtomin-inducing conditions and methods of producing thaxtomin” (University of Florida Research Foundation, Inc., priority 2017, dated 2022).

Test system: cellulose biosynthesis
Conditions: background statement, no method given

SMILES: CN1C(=O)[C@](O)(Cc2cccc(O)c2)N(C)C(=O)[C@@H]1Cc1c[nH]c2cccc([N+](=O)[O-])c12 [Thaxtomin A, thaxtomin A]
- potency in inhibiting cellulose biosynthesis: excellent potency (in an nM range)
